Measured values published in ChEMBL document CHEMBL1132061, “Studies towards the identification of potent, selective and bioavailable thrombin inhibitors” (Bioorg Med Chem Lett, 1999).

Tested on: not listed separately
Assay: Bioavailability in rat after p.o. administration at a dose of 30 mg/kg
Type: ADME, organism-based
Conditions: in vivo, po

bioavailability | Structure (SMILES)
55% | CCC1CCN(C(=O)[C@H](Cc2ccc(N)cc2)NS(=O)(=O)c2cnccc2N[C@H](COCCO)Cc2ccccc2)CC1 (stereo in doubt; 62) [listing 1 of 2 here]

Molecular target: Prothrombin (Homo sapiens, UniProt P00734)
Assay: In vitro inhibition of human thrombin.
Conditions: not given

Structure (SMILES) | Ki
O=C([C@H](Cc1ccc(O)cc1)NS(=O)(=O)c1cnccc1N[C@H](COCCO)Cc1ccccc1)N1CCC(CCCl)CC1 | 28 nM
CN(C)C[C@H](Cc1ccccc1)Nc1ccncc1S(=O)(=O)N[C@@H](Cc1ccccc1)C(=O)N1CCC(CCF)CC1 (stereo in doubt; 8) | 130 nM
COc1ccc(C[C@@H](CO)Nc2ccncc2S(=O)(=O)N[C@@H](Cc2ccccc2)C(=O)N2CCC(CCF)CC2)cc1 | 85 nM
CN(C)C[C@H](Cc1ccccc1)Nc1ccncc1S(=O)(=O)N[C@@H](Cc1ccccc1)C(=O)N1CCC(CCF)CC1 (stereo in doubt; 64) [listing 1 of 2 here] | 130 nM
CCC1CCN(C(=O)[C@H](Cc2ccc(N)cc2)NS(=O)(=O)c2cnccc2N[C@H](COCCO)Cc2ccccc2)CC1 (stereo in doubt; 62) [listing 1 of 2 here] | 147 nM

Next, values leading:

Ki | Structure (SMILES)
220 nM | O=C([C@H](Cc1ccccc1)NS(=O)(=O)c1cnccc1N[C@H](COCCO)Cc1ccccc1)N1CCC(CCF)CC1
147 nM | CCC1CCN(C(=O)[C@H](Cc2ccc(N)cc2)NS(=O)(=O)c2cnccc2N[C@H](COCCO)Cc2ccccc2)CC1 (stereo in doubt; 16)
62 nM | CCC1CCN(C(=O)[C@H](Cc2ccc(N)cc2)NS(=O)(=O)c2cnccc2N[C@@H](Cc2ccccc2)CN2CCOCC2)CC1
61 nM | O=C([C@H](Cc1ccccc1)NS(=O)(=O)c1cnccc1N[C@@H](Cc1ccccc1)CN1CCC(O)CC1)N1CCC(CCF)CC1
40 nM | CCC1CCN(C(=O)[C@H](Cc2ccc(N)cc2)NS(=O)(=O)c2cnccc2N[C@H](CO)Cc2ccc(OC)cc2)CC1

Species on record: Homo sapiens
Assay: Influence on the doubling of activated partial human thromboplastin time(APTT)
Type: functional
Conditions: not given

Structure (SMILES) | Activity
O=C([C@H](Cc1ccc(O)cc1)NS(=O)(=O)c1cnccc1N[C@H](COCCO)Cc1ccccc1)N1CCC(CCCl)CC1 | 4.4 µM
CCC1CCN(C(=O)[C@H](Cc2ccc(N)cc2)NS(=O)(=O)c2cnccc2N[C@H](COCCO)Cc2ccccc2)CC1 (stereo in doubt; 62) [listing 2 of 2 here] | 5 µM
CN(C)C[C@H](Cc1ccccc1)Nc1ccncc1S(=O)(=O)N[C@@H](Cc1ccccc1)C(=O)N1CCC(CCF)CC1 (stereo in doubt; 64) [listing 2 of 2 here] | 9.6 µM
Nc1ccc(C[C@H](NS(=O)(=O)c2cnccc2N[C@@H](Cc2ccccc2)CN2CCOCC2)C(=O)N2CCC(CCF)CC2)cc1 | 2.9 µM
